{
  "source": "patent EP0336446A1",
  "about": "“Gene and gene product for the production of beta-lactam-compounds” (BIOCHEMIE GESELLSCHAFT M.B.H., priority 1988, dated 1989)",
  "key": {"[1]": {"molecular_target": "T1, PAT (Penicillium chrysogenum, UniProt P15802)", "T1 sequence (P15802 103-357 limits assumed)": "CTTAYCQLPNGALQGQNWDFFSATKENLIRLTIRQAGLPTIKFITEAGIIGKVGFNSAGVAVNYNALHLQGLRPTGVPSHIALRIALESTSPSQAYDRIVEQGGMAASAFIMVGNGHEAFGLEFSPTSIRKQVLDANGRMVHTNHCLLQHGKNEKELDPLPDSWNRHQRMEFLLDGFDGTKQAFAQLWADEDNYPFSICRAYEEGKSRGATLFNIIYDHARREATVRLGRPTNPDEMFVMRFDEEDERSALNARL", "T1 sequence (P15802 1-102 limits assumed)": "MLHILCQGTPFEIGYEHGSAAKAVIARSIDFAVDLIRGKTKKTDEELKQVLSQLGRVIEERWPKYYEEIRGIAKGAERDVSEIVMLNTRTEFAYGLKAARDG", "experiment": "Substrate specificity of purified PAT (fraction AL 278/2), specific enzyme activity by HPLC", "format": "biochemical, Penicillium chrysogenum P2/ATCC 48271"}, "[2]": {"molecular_target": "T1, PAT", "experiment": "Microbiological test of 6-APA-PaCoA acyltransferase activity (acylation of 6-APA with PaCoA to Penicillin V), indicator strain Micrococcus luteus ATCC 9341/BC 85", "format": "biochemical, Penicillium chrysogenum P2/ATCC 48271", "settings": "for 6-APA-PaCoA Transacylierungsaktivität (mm HH Ø): Stabilisierung, 5% Sorbit / 1 mM PMSF / 1% BSA / 10% Glycerin / 5% Mannit / 100 µg 6-APA/ml"}, "[3]": {"settings": "labelled substance = Acylakzeptor, Acyldonator PaCoA"}},
  "note": "Values joined by “and” are separate entries in the source; they are usually repeats but may differ in a detail not shown here. Identical values can stand only once.",
  "data": [
    {"compound": "7-Glutaryl-APA", "values": [
      {"measurement": "mittels HPLC bestimmte spezifische Enzymaktivität (mU/mg Protein) A1 278/2", "setting": "[1]; labelled substance = Acyldonator, Acylakzeptor H₂O, Produkt 6-APA", "value": 106, "unit": "mU/mg Protein"}
    ]},
    {"compound": "CC1(C)S[C@@H]2[C@H](N)C(=O)N2[C@H]1C(=O)O", "note": "[6-APA, 6-Aminopenicillansäure]", "values": [
      {"measurement": "mittels HPLC bestimmte spezifische Enzymaktivität (mU/mg Protein) A1 278/2", "setting": "[1]; [3]", "value": 393, "unit": "mU/mg Protein"},
      {"measurement": "mittels HPLC bestimmte spezifische Enzymaktivität (mU/mg Protein) A1 278/2", "setting": "[1]; labelled substance = Acylakzeptor, Acyldonator PeCoA", "value": 329, "unit": "mU/mg Protein"},
      {"measurement": "Als Vergleich Transacylierung 6-APA + PaCoA → Penicillin V", "setting": "[2]", "value": "17.0 mm and 23.2 mm and 26.9 mm and 25.9 mm"}
    ]},
    {"compound": "CC(=O)OCC1=C(C(=O)O)N2C(=O)[C@@H](N)[C@H]2SC1", "note": "[7-ACA]", "values": [
      {"measurement": "mittels HPLC bestimmte spezifische Enzymaktivität (mU/mg Protein) A1 278/2", "setting": "[1]; [3]", "value": 0, "unit": "mU/mg Protein"}
    ]},
    {"compound": "CC1=C(C(=O)O)N2C(=O)[C@@H](N)[C@H]2SC1", "note": "[7-ADCA, 7-Amino-3-desacetoxycephalosporansäure]", "values": [
      {"measurement": "mittels HPLC bestimmte spezifische Enzymaktivität (mU/mg Protein) A1 278/2", "setting": "[1]; [3]", "value": 49, "unit": "mU/mg Protein"}
    ]},
    {"compound": "CC(=O)OCC1=C(C(=O)O)N2C(=O)[C@@H](NC(=O)CCC[C@@H](N)C(=O)O)[C@H]2SC1", "note": "[Cephalosporin C]", "values": [
      {"measurement": "mittels HPLC bestimmte spezifische Enzymaktivität (mU/mg Protein) A1 278/2", "setting": "[1]; [3]", "value": 0, "unit": "mU/mg Protein"}
    ]},
    {"compound": "OCC(O)CO", "note": "[Glycerin]", "values": [
      {"measurement": "6-APA-PaCoA Transacylierungsaktivität (mm HH Ø)", "setting": "[2]; 24 h bei +4°C, reaction 30', control ohne Zusatz Spur", "value": 11.5, "unit": "mm"},
      {"measurement": "6-APA-PaCoA Transacylierungsaktivität (mm HH Ø)", "setting": "[2]; 24 h bei +4°C, reaction sofort, control ohne Zusatz 0", "value": 0, "unit": "mm"},
      {"measurement": "6-APA-PaCoA Transacylierungsaktivität (mm HH Ø)", "setting": "[2]; 24 h bei -20°C, reaction 30', control ohne Zusatz 38", "value": 38, "unit": "mm"},
      {"measurement": "6-APA-PaCoA Transacylierungsaktivität (mm HH Ø)", "setting": "[2]; 24 h bei -20°C, reaction sofort, control ohne Zusatz 15.2", "value": 15.2, "unit": "mm"},
      {"measurement": "6-APA-PaCoA Transacylierungsaktivität (mm HH Ø)", "setting": "[2]; Testung sofort, reaction 30', control ohne Zusatz 33.4", "value": 33.1, "unit": "mm"},
      {"measurement": "6-APA-PaCoA Transacylierungsaktivität (mm HH Ø)", "setting": "[2]; Testung sofort, reaction sofort, control ohne Zusatz 21.5", "value": 22.0, "unit": "mm"}
    ]}
  ]
}
